# Experiments:
# AR NTD = target: T1, AR NTD (Homo sapiens, UniProt P10275); assay: Transactivation of AR NTD (AR-(1–558)-Gal4 DBD, 5xGal4UAS-TATA-luciferase) in LNCaP cells; assay type: cell-based; conditions: for IL-6-induced transactivation of AR NTD: 20 μM SINT1 or 25 μM EPI-002, 50 ng/ml IL-6 24 h; for forskolin-induced transactivation of AR NTD: 20 μM SINT1 or 25 μM EPI-002, 50 μM forskolin 24 h
# T1 construct: expression vector for AR NTD encoding amino acids 1–558 fused to the Gal4 DBD; expressed in transfected cells; host or cells: LNCaP
# T1 sequence (P10275 1-558): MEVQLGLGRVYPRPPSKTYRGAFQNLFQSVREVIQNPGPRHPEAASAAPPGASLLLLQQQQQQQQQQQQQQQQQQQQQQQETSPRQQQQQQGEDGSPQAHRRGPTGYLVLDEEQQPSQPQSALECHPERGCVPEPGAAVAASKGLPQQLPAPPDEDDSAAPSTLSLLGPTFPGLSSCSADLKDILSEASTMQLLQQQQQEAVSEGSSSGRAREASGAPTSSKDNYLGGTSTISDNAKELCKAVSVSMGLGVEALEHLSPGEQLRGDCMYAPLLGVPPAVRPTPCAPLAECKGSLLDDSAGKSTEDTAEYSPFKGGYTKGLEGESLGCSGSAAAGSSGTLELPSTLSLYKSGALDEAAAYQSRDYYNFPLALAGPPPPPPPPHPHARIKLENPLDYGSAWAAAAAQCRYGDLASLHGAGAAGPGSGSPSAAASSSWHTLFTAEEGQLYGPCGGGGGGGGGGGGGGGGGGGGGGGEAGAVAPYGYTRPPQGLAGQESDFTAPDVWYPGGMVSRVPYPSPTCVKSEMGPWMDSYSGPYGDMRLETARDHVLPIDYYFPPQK
# Procedure: LNCaP cells were co-transfected with 5xGal4UAS-TATA-luciferase and AR-(1–558)-Gal4 DBD prior to pretreatment with 20 μM SINT1 or 25 μM EPI-002, which binds to the AR NTD to block AR transcriptional activity. NTD activity was induced by incubation with 50 μM forskolin or 50 ng/ml IL-6 for an additional 24 h ([7], [8]).
# To test whether SINT1 can inhibit transactivation of AR NTD, LNCaP cells were co-transfected with an expression vector for AR NTD encoding amino acids 1–558 fused to the Gal4 DBD and a reporter construct with Gal4 DBD-binding sites. Transactivation of AR NTD is induced by forskolin or IL-6 ([8], [14]).
# recombinant AR LBD = target: T2, recombinant AR LBD (Rattus norvegicus, UniProt P15207); assay: Fluorescence polarization competition assay (Androgen Receptor Competitor Assay); assay type: binding; conditions: AR LBD 25 nM, 1 nM Fluormone AL Green; SINT1 and EPI-002 tested at 0.5–50 μM
# T2 construct: purchased Invitrogen
# T2 sequence (P15207 651-882 limits assumed): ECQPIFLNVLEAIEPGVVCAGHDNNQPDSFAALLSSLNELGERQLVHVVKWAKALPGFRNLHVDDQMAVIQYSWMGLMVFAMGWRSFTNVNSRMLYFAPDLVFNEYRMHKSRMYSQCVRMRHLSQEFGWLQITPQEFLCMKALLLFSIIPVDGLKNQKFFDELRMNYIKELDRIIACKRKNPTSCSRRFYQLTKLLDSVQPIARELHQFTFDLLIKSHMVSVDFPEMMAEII
# Procedure: The Androgen Receptor Competitor Assay (Green) kit (Invitrogen) was used. […] The reactions with serial dilutions of test compounds were completed in 40-μl aliquots in triplicates. Displacement of Fluormone AL Green from AR LBD by the test compounds was measured by the change in fluorescence polarization using Infinite® M1000 (Tecan) with excitation at 470 nm and emission at 535 nm.
# To determine whether the mechanism of action of SINT1 to inhibit androgen-induced AR transcriptional activity was mediated by binding to AR LBD, a fluorescence polarization competition assay was used. This assay uses recombinant AR LBD to reveal whether a test compound competes for ligand binding of Fluoromone that binds to this domain.
# [1] = tested on: FL-AR- and AR-V7-regulated genes; assay: AR-FL- and AR-V7-regulated gene expression (quantitative RT-PCR) in LNCaP95 cells; assay type: cell-based
# Procedure: At 48 h, total RNA was isolated using a PureLink RNA Mini kit (Invitrogen). For in vivo expression, tumors were harvested 3 days after last treatment, and RNA was extracted using TRIzol. Prior to cDNA generation, 4 μg of RNA were DNase-treated using DNase I (amplification grade; Sigma-Aldrich). DNase-treated RNA was split into two tubes (+RT and −RT), and cDNA was generated using the High Capacity RNA-cDNA kit (Applied Biosystems). Once complete, both reactions were adjusted to 5 ng/μl and stored at −20 °C. Approximately 5 ng of diluted cDNA and gene-specific primers were mixed with Platinum SYBR Green qPCR SuperMix-UDG with ROX (Invitrogen). The transcripts were measured using an ABI PRISM 7900 Sequence Detection System (Invitrogen). For all quantitative RT-PCR experiments, each sample was tested in triplicate, and gene expression levels were normalized to the reference gene RPL13A. Neuron-specific enolase (ENO2) (Gene ID, 2026; pair 1) and synaptophysin (SYP) (Gene ID, 6855; pair 2) human primers were from Sigma Life Science. All other primers were described previously ([4], [9]) and purchased from Integrated DNA Technologies.
# [2] = LNCaP95, 10 μM SINT1, 1 nM R1881 48 h
SMILES,IL-6-induced transactivation of AR NTD (AR NTD),forskolin-induced transactivation of AR NTD (AR NTD),competition with Fluoromone for binding to AR LBD (recombinant AR LBD),"androgen-induced transcript of FL-AR-regulated gene RHOU [1, 2]","androgen-induced transcripts of FL-AR-regulated genes KLK3/PSA, KLK2, TMPRSS2, NKX3.1, FKBP5 and SLC1A1 [1, 2]","levels of AR-V7 target gene transcripts cyclin A2, CDC20, UBE2C and CDK1 ([1]; LNCaP95, 10 μM SINT1, 48 h)","levels of AR-V7 transcript ([1]; LNCaP95, 10 μM SINT1, 48 h)","levels of FL-AR mRNA ([1]; LNCaP95, 10 μM SINT1, 48 h, compared with vehicle control)"
"CC(C)(c1ccc(OC[C@H](O)CO)cc1)c1ccc(OC[C@H](O)CCl)cc1 [EPI-002, reference compound]",potent inhibitor,significantly inhibited,did not compete,–,–,–,–,–
"CCC(=O)NC(CC(C)C(Cl)(Cl)Cl)C(=O)N1C(=O)C=C(OC)C1CC(C)C(Cl)Cl (centres unmarked) [SINT1, Sintokamide A]",no significant effect,significantly inhibited,did not compete,exception,significantly repressed,significantly repressed,no significant effect,did not lead to an increase

# Source: paper PMC5064002, “Sintokamide A Is a Novel Antagonist of Androgen Receptor That Uniquely Binds Activation Function-1 in Its Amino-terminal Domain” (The Journal of Biological Chemistry, 2016)
